Measured values taken from publication PMC4704022, “Insights on FXR selective modulation. Speculation on bile acid chemical space in the discovery of potent and selective agonists” (Scientific Reports, 2016).
Entries after “also recorded” stand apart in the source; their conditions may differ.

Key:
PBC patients = settings: cited from earlier work
NASH patients = system: NASH patients; parameters: method as in PMID 25468160; settings: cited from earlier work
FXR [1] = molecular target: T1, FXR (Homo sapiens, UniProt Q96RI1); assay: FXR transactivation luciferase reporter assay in transfected HepG2 cells; type: cell-based; settings: for FXR transactivation activity (in words): HepG2 cells, compounds at 10 μM, CDCA 10 μM and 6-ECDCA 1 μM as positive controls; for EC50: HepG2 cells transfected with FXR, luciferase reporter, 100 nM to 10 μM
T1 construct: expressed in transfected cells; host or cells: HepG2
T1 sequence (Q96RI1 1-486): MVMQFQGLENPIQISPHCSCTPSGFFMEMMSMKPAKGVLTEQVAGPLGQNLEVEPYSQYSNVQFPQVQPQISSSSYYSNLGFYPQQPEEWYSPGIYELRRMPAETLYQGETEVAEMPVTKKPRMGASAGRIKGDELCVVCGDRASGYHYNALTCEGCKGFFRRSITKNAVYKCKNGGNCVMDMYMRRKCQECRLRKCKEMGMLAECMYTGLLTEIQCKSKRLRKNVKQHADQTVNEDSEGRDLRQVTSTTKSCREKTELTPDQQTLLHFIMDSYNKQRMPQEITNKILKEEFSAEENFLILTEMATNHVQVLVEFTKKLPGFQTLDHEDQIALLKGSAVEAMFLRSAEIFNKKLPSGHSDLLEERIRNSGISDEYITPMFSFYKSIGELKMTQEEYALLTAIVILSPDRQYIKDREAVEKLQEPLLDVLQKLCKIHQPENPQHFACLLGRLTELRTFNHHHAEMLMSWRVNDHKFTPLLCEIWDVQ
T1 sequence (P19793 1-462 partner): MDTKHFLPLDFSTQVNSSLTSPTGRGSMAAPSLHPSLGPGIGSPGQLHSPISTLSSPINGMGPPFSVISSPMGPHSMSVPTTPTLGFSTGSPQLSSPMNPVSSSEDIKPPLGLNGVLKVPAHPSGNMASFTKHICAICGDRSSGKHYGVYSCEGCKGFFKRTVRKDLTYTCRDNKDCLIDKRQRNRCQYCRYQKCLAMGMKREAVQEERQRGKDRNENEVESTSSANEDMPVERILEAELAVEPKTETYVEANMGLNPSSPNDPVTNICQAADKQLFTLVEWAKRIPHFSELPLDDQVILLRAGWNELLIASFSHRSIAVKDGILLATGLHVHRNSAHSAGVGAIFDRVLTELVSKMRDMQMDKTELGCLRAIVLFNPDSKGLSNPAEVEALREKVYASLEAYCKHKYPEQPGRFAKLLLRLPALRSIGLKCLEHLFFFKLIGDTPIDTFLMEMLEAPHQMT
Method: Figure 6 Transactivation assays on FXR. (A) HepG2 cells were transfected with pSG5-FXR, pSG5-RXR, pCMV-βgal, and p(hsp27)TKLUC vectors. […] Twenty-four hour post transfection cells were stimulated with increasing concentrations of each agent: range from 100 nM to 10 μM.
To evaluate the transcriptional activity of FXR, HepG2 cells were transiently transfected with Fugene HD reagent (Promega) using the followings plasmids: pCMVSPORT-humanFXR, pSG5RXR, p(hsp27)TKLUC and pGL4.70, a plasmid containing the Renilla gene used for luciferase normalization.

GPBAR1 [2] = molecular target: T2, GPBAR1 (Homo sapiens, UniProt Q8TDU6); assay: GPBAR1 agonism, CRE-luciferase transactivation assay in transfected HEK-293T cells; type: cell-based; settings: from FXR and GPBAR1 transactivation results
T2 construct: expressed in transfected cells; host or cells: HEK-293T
T2 sequence (Q8TDU6 1-330): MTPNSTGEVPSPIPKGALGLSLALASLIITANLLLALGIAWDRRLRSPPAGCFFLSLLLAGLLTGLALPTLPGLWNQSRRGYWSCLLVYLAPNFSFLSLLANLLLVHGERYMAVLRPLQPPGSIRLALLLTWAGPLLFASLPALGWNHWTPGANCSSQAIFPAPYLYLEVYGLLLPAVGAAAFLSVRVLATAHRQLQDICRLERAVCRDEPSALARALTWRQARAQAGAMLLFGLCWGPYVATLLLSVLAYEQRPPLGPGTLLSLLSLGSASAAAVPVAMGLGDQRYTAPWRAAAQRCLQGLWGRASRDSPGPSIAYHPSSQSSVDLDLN
Method: (A) HEK-293T cells were co-transfected with GPBAR1 and a reporter gene containing a cAMP responsive element in front of the luciferase gene. Twenty-four hour post transfection cells were stimulated with 7–21 (10 μM). Luciferase activity served as a measure of the rise in intracellular cAMP following activation of GPBAR1. […] Twenty-four hour post transfection cells were stimulated with increasing concentrations of each agent: range from 100 nM to 50 μM. Results are expressed as mean ± standard error.
To investigate GPBAR1 activation, HEK-293T cells were transiently transfected with Fugene HD reagent (Promega) using the following vectors: pCMVSPORT6-human GPBAR1, pGL4.29 (Promega), a reporter vector containing a cAMP response element (CRE) cloned upstream to the luciferase reporter gene luc2P and pGL4.70. […] Dose-response curves were performed in HEK-293T cells transfected as described above and treated with increasing concentrations of 9 and 21 (from 100 nM to 50 μM). […] At 18 h post stimulations, cellular lysate was assayed for luciferase and renilla activities using the Dual-Luciferase Reporter assay system (E1980, Promega). Luminescence was measured using Glomax 20/20 luminometer (Promega). Luciferase activities were normalized with Renilla activities.

FXR-LBD = molecular target: T3, FXR-LBD (Homo sapiens, UniProt Q96RI1); assay: Alphascreen coactivator recruitment assay, FXR-LBD with SRC-1 peptide; type: biochemical; settings: ligand at 2 μM, effect of 6 set as 100%
T3 construct: 10 nM of purified GST-tagged FXR-LBD protein
T3 sequence (Q96RI1 262-486 limits assumed): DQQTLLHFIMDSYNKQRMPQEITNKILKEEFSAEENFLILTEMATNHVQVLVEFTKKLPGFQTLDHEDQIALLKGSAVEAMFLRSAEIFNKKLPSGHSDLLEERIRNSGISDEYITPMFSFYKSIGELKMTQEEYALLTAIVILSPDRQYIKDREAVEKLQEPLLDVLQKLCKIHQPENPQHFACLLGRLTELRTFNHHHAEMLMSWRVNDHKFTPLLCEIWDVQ
Method: Figure 7 Coactivator recruitment assay measuring a direct interaction of FXR with SRC-1. Anti-GST-coated acceptor beads captured GST-fusion FXR-LBD and the biotinylated-SRC-1 peptide was captured by the streptavidin donor beads. FXR-LBD recruited SRC-1 in the presence of ligand at 2 μM and, upon illumination at 680 nm, chemical energy is transferred from donor to acceptor beads across the complex streptavidin-donor/Src-1-biotin/ligand/GSTFXR-LBD/anti-GST-acceptor and a signal is produced. Results are expressed as percentage of the effect of 6 arbitrarily settled as 100%. NT is referred to the experiment carried out in absence of ligand. Results are expressed as mean ± standard error.
The relative potency of selected members of this novel family was then investigated by a detailed measurement of concentration-response curve of the 3-deoxy sulfate derivative 9, the corresponding carboxylic acid 10, and the 3β-hydroxyl alcohol 15 and carboxylic acid derivative 17, all sharing the 6α/7α configuration, on FXR transactivation. […] In this assay, the ligand induces the recruitment of the coactivator to the LBD of hFXR.
Anti-GST-coated acceptor beads were used to capture the GST-fusion FXR-LBD, whereas the biotinylated-SRC-1 peptide was captured by the streptavidin donor beads. Upon illumination at 680 nm, chemical energy is transferred from donor to acceptor beads across the complex streptavidin-donor/Src-1-biotin/GSTFXR-LBD/anti-GST-acceptor and a signal is produced. The assay was performed in white, low-volume, 384-well Optiplates (PerkinElmer) using a final volume of 25 μL containing final concentrations of 10 nM of purified GST-tagged FXR-LBD protein, 30 nM biotinylated Src-1 peptide, 20 μg/mL anti-GST acceptor beads acceptor beads, and 10 μg/mL of streptavidin donor bead (PerkinElmer). The assay buffer contained 50 mM Tris (pH 7.4), 50 mM KCl, 0.1% BSA, and 1 mM DTT. […] After the addition of the detection mix (acceptor and donor beads), the plates were incubated in the dark for 4 h at room temperature and then were read in an Envision microplate analyzer (PerkinElmer).

FXR [3] = system: FXR; parameters: method as in PMID 10360171; settings: cited from earlier work
GPBAR1 [4] = system: GPBAR1; parameters: method as in PMID 25247751; settings: cited from earlier work

CC[C@H]1[C@@H](O)[C@@H]2[C@H](CC[C@]3(C)[C@@H]([C@H](C)CCC(=O)O)CC[C@@H]23)[C@@]2(C)CC[C@@H](O)C[C@@H]12 [6-ECDCA, 6-ethylchenodeoxycholic acid]
Drug discontinuation due to exacerbation of itching, patients (PBC patients; PBC patients): 40%
Drug discontinuation, patients (PBC patients; due to pruritus): 40%
Incidence of pruritus, patients (PBC patients; patients with primary biliary cirrhosis): up to 80%
NASH resolution, patients (NASH patients; after 72 weeks, p = 0.08 vs. placebo): 22%
Decrease in HDL-C levels (NASH patients; as compared to placebo): 5%
Increase in LDL-C (NASH patients; as compared to placebo): 16%
Primary histological outcome (NAFLD activity score) and fibrosis score (NASH patients; compared with placebo): significantly improved

CC[C@H]1[C@@H](O)C2C3CC[C@H]([C@H](C)CCCO)[C@@]3(C)CCC2[C@@]2(C)CCCC[C@@H]12 (stereo partly drawn) [compound 7]
FXR transactivation activity (in words) (FXR [1]): potent agonists of FXR

CC[C@H]1[C@H](O)C2C3CC[C@H]([C@H](C)CCCO)[C@@]3(C)CCC2[C@@]2(C)CCCC[C@@H]12 (stereo partly drawn) [compound 8]
FXR transactivation activity (in words) (FXR [1]): completely inactive towards FXR

CC[C@H]1[C@@H](O)C2C3CC[C@H]([C@H](C)CCCOS(=O)(=O)O)[C@@]3(C)CCC2[C@@]2(C)CCCC[C@@H]12 (stereo partly drawn) [compound 9]
EC50 (FXR [1]): 1100 nM
FXR transactivation activity (in words) (FXR [1]): potent agonists of FXR
Receptor preference FXR versus GPBAR1 (in words) (GPBAR1 [2]): preferential FXR modulator with a residual activity on GPBAR1

CC[C@H]1[C@H](O)[C@@H]2[C@H](CC[C@]3(C)[C@@H]([C@H](C)CCC(=O)O)CC[C@@H]23)[C@@]2(C)CCCC[C@@H]12 [compound 11, 6α-ethyl-7β-hydroxy-5β-cholan-24-oic acid]
FXR transactivation activity (in words) (FXR [1]): retains a certain activity

CC[C@H]1[C@@H](O)C2C3CC[C@H]([C@H](C)CCC(=O)NCCS(=O)(=O)O)[C@@]3(C)CCC2[C@@]2(C)CCCC[C@@H]12 (stereo partly drawn) [compound 12]
FXR transactivation activity (in words) (FXR [1]): ability in transactivating FXR is also maintained; also recorded: still a potent FXR agonist

CC[C@@H]1[C@H](O)C2C3CC[C@H]([C@H](C)CCCO)[C@@]3(C)CCC2[C@@]2(C)CCCC[C@@H]12 (stereo partly drawn) [compound 13]
FXR transactivation activity (in words) (FXR [1]): complete loss of activity

CC[C@H]1[C@@H](O)[C@@H]2[C@H](CC[C@]3(C)[C@@H]([C@H](C)CCCO)CC[C@@H]23)[C@@]2(C)CC[C@H](O)C[C@@H]12 [compound 15, 6α-ethyl-3β,7α-dihydroxy-5β-cholan-24-ol]
EC50 (FXR [1]): 2200 nM
FXR transactivation activity (in words) (FXR [1]): potent agonists of FXR
Recruitment of SRC-1 coactivator to FXR-LBD (in words) (FXR-LBD): very potent activity in the recruitment of SRC-1 co-activator

CC[C@H]1[C@@H](O)[C@@H]2[C@H](CC[C@]3(C)[C@@H]([C@H](C)CCC(=O)O)CC[C@@H]23)[C@@]2(C)CC[C@H](O)C[C@@H]12 [compound 17, 6α-ethyl-3β,7α-dihydroxy-5β-cholan-24-oic acid]
FXR transactivation activity (in words) (FXR [1]): potent agonists of FXR
Recruitment of SRC-1 coactivator to FXR-LBD (in words) (FXR-LBD): very potent activity in the recruitment of SRC-1 co-activator

CC[C@H]1[C@@H](O)C2C3CC[C@H]([C@H](C)CCC(=O)NCCS(=O)(=O)O)[C@@]3(C)CCC2[C@@]2(C)CC[C@H](O)C[C@@H]12 (stereo partly drawn) [compound 19]
FXR transactivation activity (in words) (FXR [1]): considerable decrease in FXR transactivation activity; also recorded: detrimental in term of FXR activation

CC[C@@H]1[C@H](O)C2C3CC[C@H]([C@H](C)CCCO)[C@@]3(C)CCC2[C@@]2(C)CC[C@H](O)C[C@@H]12 (stereo partly drawn) [compound 20]
FXR transactivation activity (in words) (FXR [1]): complete loss of activity

CC[C@@H]1[C@@H](O)C2C3CC[C@H]([C@H](C)CCCO)[C@@]3(C)CCC2[C@@]2(C)CC[C@H](O)C[C@@H]12 (stereo partly drawn) [compound 21]
FXR transactivation activity (in words) (FXR [1]): less potent then CDCA in transactivating FXR
Receptor preference FXR versus GPBAR1 (in words) (GPBAR1 [2]): weak but preferential GPBAR1 activator

C[C@H](CCC(=O)O)[C@H]1CC[C@H]2[C@@H]3CC[C@@H]4C[C@H](O)CC[C@]4(C)[C@H]3C[C@H](O)[C@]12C [deoxycholic acid]
FXR ligand strength relative to CDCA (in words) (FXR [3]): weaker natural ligands

C[C@H](CCC(=O)O)[C@H]1CC[C@H]2[C@@H]3[C@H](O)C[C@@H]4C[C@@H](O)CC[C@]4(C)[C@H]3CC[C@]12C [iso-CDCA, isochenodeoxycholic acid]
GPBAR1 activity (in words) (GPBAR1 [4]): very weak activity towards GPBAR1

C[C@H](CCC(=O)O)[C@H]1CC[C@H]2[C@@H]3CC[C@@H]4C[C@@H](O)CC[C@]4(C)[C@H]3CC[C@]12C [iso-LCA]
GPBAR1 activity (in words) (GPBAR1 [4]): less potent respect to the cognate LCA
